# Values of other authors as cited in patent US20170119742A1, “MEDICAMENT FOR PREVENTING AND/OR TREATING STRESS DISEASES” (ONO PHARMACEUTICAL CO., LTD., priority 2014, published 2017).
# Target: brain NK1 receptors (Homo sapiens, UniProt P25103)
# Conditions: Non-Patent Document 5; cited from earlier work
# Sequence of brain NK1 receptors (P25103 whole entry): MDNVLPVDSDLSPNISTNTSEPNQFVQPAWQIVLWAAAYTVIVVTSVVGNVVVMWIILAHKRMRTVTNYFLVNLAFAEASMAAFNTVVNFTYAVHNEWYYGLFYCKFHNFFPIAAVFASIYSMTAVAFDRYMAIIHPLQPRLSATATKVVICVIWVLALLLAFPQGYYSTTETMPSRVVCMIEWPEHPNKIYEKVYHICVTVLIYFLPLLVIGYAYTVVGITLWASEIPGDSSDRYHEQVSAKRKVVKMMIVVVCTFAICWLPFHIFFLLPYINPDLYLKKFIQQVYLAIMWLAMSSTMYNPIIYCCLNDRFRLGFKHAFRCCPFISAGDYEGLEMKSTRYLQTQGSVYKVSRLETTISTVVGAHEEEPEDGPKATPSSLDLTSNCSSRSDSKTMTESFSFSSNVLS
smiles,measurement,value
C[C@@H](O[C@H]1OCCN(Cc2n[nH]c(=O)[nH]2)[C@H]1c1ccc(F)cc1)c1cc(C(F)(F)F)cc(C(F)(F)F)c1 [aprepitant],brain NK1 receptor occupancy necessary for expressing the efficacy,≥ 90%
same,plasma concentration at 90% or more brain NK1 receptor occupancy,≥ 100 ng/mL
